Assay results taken from the supplement of paper PMC10307832.

How the values were obtained:
Experiment in all cases: relative viability (nuclei count vs DMSO), 5 days (fraction); higher = more cells survive
[1] = compound: CCN(CCO)CCCC(C)Nc1ccnc2cc(Cl)ccc12 [Hydroxychloroquine] + CC(C)C[C@H](NC(=O)[C@H](Cc1ccccc1)NC(=O)c1cnccn1)B(O)O [Bortezomib] (partner 0.002 µM)
In short: (§1)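 Cells from lung cancer lines were seeded into 1536-well plates and, one day later, dosed by pin tool. Treatments were either a single drug or a fixed dose of an anchor drug with five library-drug doses (not always all listed) in √10 steps. After 5 days, nuclei were stained in a one-step fixation (final 0.05% Triton X-100, 1% formaldehyde, 1 ug/ml Hoechst) and counted on 4× images, and relative viability is the treated-to-vehicle nuclei ratio, as the median of duplicate plates.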

[2] = compound: CCN(CCO)CCCC(C)Nc1ccnc2cc(Cl)ccc12 [Hydroxychloroquine] + CC1(C)CCC(c2ccc(Cl)cc2)=C(CN2CCN(c3ccc(C(=O)NS(=O)(=O)c4ccc(N[C@H](CCN5CCOCC5)CSc5ccccc5)c(S(=O)(=O)C(F)(F)F)c4)cc3)CC2)C1 [Navitoclax] (partner 0.5 µM)
In short: as §1

[3] = compound: CCN(CCO)CCCC(C)Nc1ccnc2cc(Cl)ccc12 [Hydroxychloroquine] + Cc1nc(Nc2ncc(C(=O)Nc3c(C)cccc3Cl)s2)cc(N2CCN(CCO)CC2)n1 [Dasatinib] (partner 0.075 µM)
In short: as §1

[4] = compound: CCN(CCO)CCCC(C)Nc1ccnc2cc(Cl)ccc12 [Hydroxychloroquine] + CCNC(=O)c1noc(-c2cc(C(C)C)c(O)cc2O)c1-c1ccc(CN2CCOCC2)cc1 [Luminespib] (partner 0.01 µM)
In short: as §1

Cell Line	relative viability ([1]; first compound 0.5 µM)	relative viability ([1]; first compound 1.581 µM)	relative viability ([1]; first compound 5 µM)	relative viability ([1]; first compound 15.81 µM)	relative viability ([1]; first compound 50 µM)	relative viability ([2]; first compound 0.5 µM)	relative viability ([2]; first compound 1.581 µM)	relative viability ([2]; first compound 5 µM)	relative viability ([2]; first compound 15.81 µM)	relative viability ([2]; first compound 50 µM)	relative viability ([3]; first compound 0.5 µM)	relative viability ([3]; first compound 1.581 µM)	relative viability ([3]; first compound 5 µM)	relative viability ([3]; first compound 15.81 µM)	relative viability ([3]; first compound 50 µM)	relative viability ([4]; first compound 0.5 µM)	relative viability ([4]; first compound 1.581 µM)	relative viability ([4]; first compound 5 µM)	relative viability ([4]; first compound 15.81 µM)	relative viability ([4]; first compound 50 µM)
LU99A	1.11	1.02	1.11	1.08	1.26	0.858	0.707	0.93	0.679	0.749	0.47	0.502	0.714	0.613	0.612	0.279	0.248	0.265	0.226	0.268
LXF-289	1.02	1.01	0.939	1.01	1	0.956	0.986	0.983	0.948	0.999	0.234	0.212	0.217	0.202	0.195	0.745	0.824	0.713	0.576	0.721
NCI-H23	1.15	1.14	0.884	1.02	0.881	0.841	0.822	0.842	0.732	0.953	0.87	0.683	0.879	0.807	0.795	0.23	0.218	0.22	0.215	0.216
NCI-H322M	1.31	1.27	1.16	1.36	1.2	1	1.15	1.12	1.15	1.43	0.256	0.248	0.258	0.253	0.263	0.758	0.803	0.902	0.777	0.798
NCI-H441		0.426	0.453	0.552	0.77		0.767	0.52	0.707	0.671	0.608	0.559	0.66	0.496	0.684	0.361	0.334	0.328	0.417	0.329
NCI-H460	1.08	1.05	1.1	1.39	1.36	1.24	1.35	1.19	1.36	1.41	0.576	0.481	0.457	0.527	0.599	0.0311	0.0319	0.0298	0.0324	0.0362
NCI-H520	0.639	0.606	0.662	0.658	0.511	1.12	1.16	1.13	1.03	1.2	0.196	0.223	0.213	0.184	0.196	0.236	0.226	0.217	0.184	0.209
NCI-H596	1.04	0.857	0.847	0.999	1.19	0.857	0.853	0.933	0.979	0.998	0.56	0.587	0.59	0.655	0.591	1.09	1.03	0.959	0.993	0.958
NCI-H647	1.07	1.19	0.876	1.15	0.813	1.23	0.938	1.29	1.19	1.31	0.226	0.214	0.168	0.194	0.184	0.204	0.141	0.132	0.234	0.142
NCI-H727	0.975	0.749	0.89	0.823	0.885	0.456	0.399	0.482	0.357	0.406	0.337	0.379	0.471	0.43	0.457	0.265	0.423	0.318	0.464	0.779
NCI-H838	0.9	0.819	0.663	0.79	0.805	1.16	1.11	1.13	1.14	1.24	0.256	0.258	0.296	0.242	0.237	0.318	0.304	0.333	0.295	0.268
NCI-H1355	1.24	1.19	1.09	1.12	1.25	0.891	0.879	0.876	0.991	1.01	0.74	0.59	0.693	0.705	0.875	0.877	0.754	0.712	0.632	0.729
NCI-H1437	0.516	0.737	0.505	0.483	0.446	1.08	1.1	1.11	1.14	1.11	0.371	0.493	0.375	0.429	0.509	1.2	1.1	1.18	1.04	1.24
NCI-H1650	0.203	0.221	0.218	0.227	0.219	1.06	1.06	1.24	1.04	1.29	0.425	0.357	0.241	0.296	0.303	0.178	0.173	0.203	0.227	0.193
NCI-H1651	0.947	0.932	0.866	0.982	0.943	0.927	1.05	1.12	1.07	1.01	0.421	0.554	0.427	0.436	0.396	0.843	0.817	0.89	0.739	0.963
NCI-H1666	0.907	0.658	0.652	0.714	0.772	0.921	0.951	0.986	0.827	0.918	0.845	0.771	0.815	0.793	0.765	1.02	0.989	0.981	1.01	0.923
